These are literature values, as cited in patent US10052339B2, “Methods and compositions for treating symptoms of diseases related to imbalance of essential fatty acids” (BODYBIO INC, priority 2014, dated 2018).

By pKi is commonly meant −log10 of the Ki, conventionally taken in molar units.

For one data set, the target named is CB1 cannabinoid receptor (Homo sapiens, UniProt P21554).
In another data set the target is CB2 receptor (Homo sapiens, UniProt P34972).

Structures are written as SMILES. pKi: −log10 of the molar value.

CB1 cannabinoid receptor, sequence (P21554 whole entry): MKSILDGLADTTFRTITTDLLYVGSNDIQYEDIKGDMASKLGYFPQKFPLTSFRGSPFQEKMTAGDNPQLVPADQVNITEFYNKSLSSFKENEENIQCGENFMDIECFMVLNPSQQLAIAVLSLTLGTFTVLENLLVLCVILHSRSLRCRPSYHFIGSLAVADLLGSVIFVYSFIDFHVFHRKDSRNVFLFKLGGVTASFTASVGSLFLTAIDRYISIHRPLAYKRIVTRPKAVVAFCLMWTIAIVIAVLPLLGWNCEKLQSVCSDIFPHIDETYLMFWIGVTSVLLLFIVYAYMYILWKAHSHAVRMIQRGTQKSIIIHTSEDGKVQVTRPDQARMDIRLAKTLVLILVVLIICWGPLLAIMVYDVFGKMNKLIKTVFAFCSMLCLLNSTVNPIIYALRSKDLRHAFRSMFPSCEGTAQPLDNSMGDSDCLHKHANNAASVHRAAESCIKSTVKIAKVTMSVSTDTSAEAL
CB2 receptor, sequence (P34972 whole entry): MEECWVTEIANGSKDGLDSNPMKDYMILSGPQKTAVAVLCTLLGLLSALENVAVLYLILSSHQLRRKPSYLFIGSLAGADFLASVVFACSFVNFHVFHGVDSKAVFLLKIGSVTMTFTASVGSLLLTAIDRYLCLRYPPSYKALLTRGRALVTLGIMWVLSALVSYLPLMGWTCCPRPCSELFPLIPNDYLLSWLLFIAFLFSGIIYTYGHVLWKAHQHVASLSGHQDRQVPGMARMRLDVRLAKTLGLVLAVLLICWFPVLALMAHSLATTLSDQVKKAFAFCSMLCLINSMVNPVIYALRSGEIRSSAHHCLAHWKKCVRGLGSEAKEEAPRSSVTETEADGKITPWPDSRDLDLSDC

With `CCCCC/C=C\C/C=C\C/C=C\C/C=C\CCCCOC(CO)CO` [Noladin ether, 2-arachidonyl glyceryl ether], the pKi at CB1 cannabinoid receptor was 7.67. The “binding to the CB2 receptor” value at CB2 receptor is recorded as “only weakly”. Further, the “effects caused in mice” value in the data set on mice is “sedation, hypothermia, intestinal immobility, and mild antinociception”.
